Experimental data: paper PMC5958115, “A novel small molecule chaperone of rod opsin and its potential therapy for retinal degeneration” (Nature Communications, 2018)

Tests used:
NIH3T3 cells = assay: Cell number in high-content imaging of NIH3T3 cells; assay type: cell-based, mouse
Protocol: To characterize the effect of active compounds on the localization of P23H-mutant opsin in mammalian cells, an image-based assay was used with cells immunostained for WT or P23H-mutant opsin protein[18]. Briefly, NIH3T3-(P23H opsin/GFP) or NIH3T3-(WT-opsin/GFP) cells were seeded at 5000 cells per well in a 384-well cell-carrier plate (PerkinElmer) and incubated at 37 °C with 5% CO2 for 2 h. Cells were treated with compounds as described for the β-Gal fragment complementation assay and incubated in assay medium for 24 h. The assay medium then was aspirated, and cells were fixed with 4% paraformaldehyde at 20 µL per well for 20 min at RT. […] Fluorescence images were obtained with the Operetta High Content Imaging System (PerkinElmer) using a ×20 long objective. Five fields were taken of each well for cell images using three channels for fluorescence: GFP (100 ms), Cy3 (300 ms), and DAPI (50 ms). Images were analyzed with Acapella software from the Columbus data storage and analysis system (PerkinElmer)[18]. For cells immunostained with opsin on the non-permeabilized cell membrane only, an average of total fluorescence intensity of Cy3 per cell was used to quantify opsin in each well of the 384-well plate. […]

Abca4−/−Rdh8−/− mice = assay: Bright light-induced retinal degeneration (SD-OCT, HE staining); assay type: in vivo, mouse; settings: 50 or 200 mg kg^−1 bw i.p. 30 min before 10,000 lux for 30 min; day 7
Protocol: Abca4^−/−Rdh8^−/− [42] mice with a 129 Sv/Ev or C57BL/6 mixed background were used for light-induced retinal degeneration assays. […] Male and female C57BL/6 mice (Jackson Laboratory, Bar Harbor, ME) at 6 weeks of age were used to test the effects of YC-001 treatment on the retinoid cycle and bw as well as to determine parenterally administrated YC-001 entering the eyes. YC-001 was dissolved in DMSO at 80–160 mg mL^−1, and the solution was provided to mice by i.p. injection. All mice were housed and maintained in a 12 h light (≤10 lux)/12 h dark cycle in the Animal Resource Center at the School of Medicine, CWRU. […]
Retinal degeneration was initiated by exposing Abca4^−/−Rdh8^−/− mice for 30 min to white light with an intensity of 10,000 lux (150-W spiral lamp, Hampton Bay, Home Depot, Atlanta, GA USA)[43]. […] Retinal structures were analyzed by SD-OCT seven days after bright light exposure. […]
To assess the effect of YC-001 treatment on Abca4^−/−Rdh8^−/− mice following bright light-induced retinal degeneration, we performed ultrahigh-resolution SD-OCT (Bioptigen, Morrisville, NC) for in vivo imaging of mouse retinas. […] To measure changes to photoreceptors in the retinas challenged with bright light and assess the effect of YC-001 on retinal protection, the thickness of the ONL was measured along the scanned SD-OCT image at 8 points from the nasal to temporal end of the retina. […]

P23H opsin = settings: cited from earlier work
ovine COX-1 = molecular target: T1, ovine COX-1 (Ovis aries, UniProt P05979); assay: COX-1 activity assay (fluorometric); assay type: biochemical; settings: up to 80 µM
T1 construct: purchased Abcam
T1 sequence (P05979 25-600): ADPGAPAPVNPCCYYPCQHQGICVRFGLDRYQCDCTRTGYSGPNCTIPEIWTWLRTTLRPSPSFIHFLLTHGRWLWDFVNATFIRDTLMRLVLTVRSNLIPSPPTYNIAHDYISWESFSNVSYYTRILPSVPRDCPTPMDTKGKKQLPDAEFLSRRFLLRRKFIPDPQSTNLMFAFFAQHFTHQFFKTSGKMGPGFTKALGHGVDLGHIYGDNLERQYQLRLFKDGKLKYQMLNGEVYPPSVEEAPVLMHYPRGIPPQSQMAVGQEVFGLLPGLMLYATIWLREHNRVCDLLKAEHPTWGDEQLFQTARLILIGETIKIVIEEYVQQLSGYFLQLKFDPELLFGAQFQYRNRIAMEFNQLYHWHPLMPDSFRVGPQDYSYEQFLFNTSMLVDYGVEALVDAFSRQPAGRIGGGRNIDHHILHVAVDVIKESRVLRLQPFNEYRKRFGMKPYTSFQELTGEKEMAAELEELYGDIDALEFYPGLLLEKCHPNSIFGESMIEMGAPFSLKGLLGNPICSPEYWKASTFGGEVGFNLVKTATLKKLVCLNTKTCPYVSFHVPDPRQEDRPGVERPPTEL
Protocol: The effect of the compound YC-001 on COX-1 activity was evaluated using the COX-1 Inhibitor Screening Kit (Abcam, Cambridge, MA, USA) according to the manufacture’s protocol. Briefly, the assay is based on the fluorometric detection of Prostaglandin G2, the intermediate product generated by the COX-1 enzyme. COX reaction mix included ovine COX-1, COX probe, and COX cofactor was prepared in a 96-well plate. YC-001 working solutions were dissolved in DMSO, and then mixed with COX Reaction Mix to the final concentrations (80, 40, 20, 10, 5, 2.5, 1.25, 0.625, 0.312, 0.156, 0.078 and 0.039 µM). Equivalent volume of DMSO was used as vehicle control and SC560 was used as a positive control. All controls and samples were measured in triplicate. Then arachidonic acid was added into each well to initiate all the reactions at the same time. The fluorescence was measured at Ex/Em = 535/587 nm in a kinetic mode for 15 min at 25 °C. Five time points were chosen in the linear range of the plot and the corresponding values for the fluorescence were used to calculate the slope of the linear regression equation. Relative COX-1 activity was calculated as Eq. 5: RelativeCOX-1Activity(%)=Slopeofsample/Slopeofenzymecontrol×100 .

| concentration that euthanized most cells (NIH3T3 cells; 24 h treatment) | Compound | protection of the ONL from light-induced damage (Abca4−/−Rdh8−/− mice) | effect of co-treatment with scriptaid (P23H opsin) | COX-1 enzymatic activity (ovine COX-1) | effect on cell number (NIH3T3 cells; up to 40 µM) |
| --- | --- | --- | --- | --- | --- |
| higher than 10 µM | CC1=C(/C=C/C(C)=C\C=C\C(C)=C\C=O)C(C)(C)CCC1 [9-cis-retinal, reference compound] |  |  |  |  |
|  | O=C1OCC(c2ccc(Cl)s2)=C1c1cccs1 [YC-001] | dose-dependent protection of the ONL | synergistic effect | did not see changes | did not affect cell number |
